US9505767B2, “Pyrazolo[1,5-A]pyrimidin-7(4H)-onehistone demethylase inhibitors” (Genentech, Inc., priority 2013, dated 2016)

What follows are compounds tested against T1, KDM5A (Homo sapiens, UniProt P29375) (assay: KDM5A Demethylase Assay (MassSpec Assay-A)). Details: full length recombinant Flag tagged KDM5A, 20 nM; MassSpec readout; biotinylated H3K9me1 peptide 4.0 μM; read-out: A KDM5A MS (IC50).
T1 construct: Full length recombinant Flag tagged KDM5A protein was purified from Sf9 insect cells; Flag; made in house; host or cells: Sf9 insect cells
T1 sequence (P29375 whole entry): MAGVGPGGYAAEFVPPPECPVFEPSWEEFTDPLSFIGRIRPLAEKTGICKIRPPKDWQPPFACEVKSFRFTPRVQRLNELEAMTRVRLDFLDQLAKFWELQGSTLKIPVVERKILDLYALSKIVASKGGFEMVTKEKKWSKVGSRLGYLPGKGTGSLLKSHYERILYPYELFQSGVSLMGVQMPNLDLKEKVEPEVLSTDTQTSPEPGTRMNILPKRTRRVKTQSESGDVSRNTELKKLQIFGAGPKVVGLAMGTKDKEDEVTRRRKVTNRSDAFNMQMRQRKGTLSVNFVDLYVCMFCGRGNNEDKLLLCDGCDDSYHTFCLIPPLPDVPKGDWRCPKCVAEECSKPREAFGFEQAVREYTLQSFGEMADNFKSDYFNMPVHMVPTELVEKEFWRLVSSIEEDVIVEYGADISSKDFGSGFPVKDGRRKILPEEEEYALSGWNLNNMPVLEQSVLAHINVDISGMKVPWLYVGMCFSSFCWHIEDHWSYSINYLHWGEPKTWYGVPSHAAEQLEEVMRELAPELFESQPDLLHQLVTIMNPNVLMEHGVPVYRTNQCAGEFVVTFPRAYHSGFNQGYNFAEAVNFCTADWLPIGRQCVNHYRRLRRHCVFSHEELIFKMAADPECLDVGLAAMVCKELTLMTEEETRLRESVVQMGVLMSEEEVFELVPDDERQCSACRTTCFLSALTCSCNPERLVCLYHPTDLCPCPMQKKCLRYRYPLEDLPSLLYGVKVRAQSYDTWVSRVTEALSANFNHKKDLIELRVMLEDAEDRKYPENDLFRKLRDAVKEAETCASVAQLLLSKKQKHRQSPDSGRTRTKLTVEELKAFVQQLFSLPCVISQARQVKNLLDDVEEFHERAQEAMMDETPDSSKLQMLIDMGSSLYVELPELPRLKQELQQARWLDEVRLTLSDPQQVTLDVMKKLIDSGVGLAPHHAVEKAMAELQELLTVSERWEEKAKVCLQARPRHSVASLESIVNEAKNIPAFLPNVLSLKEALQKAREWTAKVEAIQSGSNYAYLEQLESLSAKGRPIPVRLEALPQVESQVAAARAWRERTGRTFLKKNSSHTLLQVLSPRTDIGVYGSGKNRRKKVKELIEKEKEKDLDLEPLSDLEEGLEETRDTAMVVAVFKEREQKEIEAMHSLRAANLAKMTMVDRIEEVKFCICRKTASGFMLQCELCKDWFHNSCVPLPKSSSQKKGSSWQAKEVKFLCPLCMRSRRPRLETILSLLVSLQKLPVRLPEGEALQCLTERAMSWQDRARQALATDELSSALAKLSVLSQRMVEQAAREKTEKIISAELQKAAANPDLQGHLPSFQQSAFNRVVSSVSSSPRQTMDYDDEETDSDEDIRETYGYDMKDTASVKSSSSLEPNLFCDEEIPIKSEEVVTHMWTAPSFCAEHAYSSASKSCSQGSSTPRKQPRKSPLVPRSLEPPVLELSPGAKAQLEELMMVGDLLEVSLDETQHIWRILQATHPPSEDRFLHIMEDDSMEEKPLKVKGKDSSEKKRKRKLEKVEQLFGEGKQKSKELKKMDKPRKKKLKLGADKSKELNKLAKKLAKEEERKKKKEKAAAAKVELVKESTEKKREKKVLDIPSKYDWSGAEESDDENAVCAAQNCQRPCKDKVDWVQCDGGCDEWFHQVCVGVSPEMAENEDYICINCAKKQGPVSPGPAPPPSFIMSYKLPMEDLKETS
Type: biochemical
Protocol: Full length recombinant Flag tagged KDM5A protein was purified from […] insect cells. The demethylation reaction buffer contained 50 mM TrisCl pH 7.4, 0.01% Triton X-100, 0.025 mg/mL BSA, 1 mM ascorbate (Cat# A4034, Sigma Aldrich), 2 mM TCEP (Cat# D9779, Sigma Aldrich), 2.0 μM α-ketoglutarate (# K2010, Sigma Aldrich) and 50 μM Fe2(NH4)2(SO4)2 (Cat# F1543, Sigma Aldrich). In a 25 μL demethylation reaction system, 20 nM recombinant KDM5A and was incubated with compounds for 10 minutes in the above buffer, and then […] (# K2010, Sigma Aldrich), 4.0 μM biotinylated H3K9me1 peptide (1-21 aa), and Fe2(NH4)2(SO4)2 were added to initiate the reaction. (All reagent concentrations are final reagent concentrations.) Reactions were incubated for 30 minutes at room temperature, and then quenched by addition of an equal volume of 1% formic acid. After termination, plates were sealed and frozen at −80° C. for analysis.
Work on `CCc1c(C)[nH]c2c(-c3cnn(-c4cnccn4)c3)cnn2c1=O` [Example 72, 6-ethyl-5-methyl-3-(1-(pyrazin-2-yl)-1H-pyrazol-4-yl)pyrazolo[1,5-a]pyrimidin-7(4H)-one] yielded an IC50 of 76 nM.
Work on `CCc1c(C)[nH]c2c(-n3cnc4ccccc43)cnn2c1=O` [Example 82, 3-(1H-benzo[d]imidazol-1-yl)-6-ethyl-5-methylpyrazolo[1,5-a]pyrimidin-7(4H)-one] yielded an IC50 of 80000 nM.
With `CCc1c(C)[nH]c2c(-n3cnc(-c4cscn4)c3)cnn2c1=O` [Example 53, 6-Ethyl-5-methyl-3-(4-(thiazol-4-yl)-1H-imidazol-1-yl)pyrazolo[1,5-a]pyrimidin-7(4H)-one] the IC50 was 453 nM.
Work on `CCc1c(C)[nH]c2c(-n3cncc3I)cnn2c1=O` [Example 81, 6-ethyl-3-(5-iodo-1H-imidazol-1-yl)-5-methylpyrazolo[1,5-a]pyrimidin-7(4H)-one] yielded an IC50 of 3050 nM.
Work on `CCc1c(C)[nH]c2c(-c3nc(C(N)=O)no3)cnn2c1=O` [Example 58, 5-(6-Ethyl-5-methyl-7-oxo-4,7-dihydropyrazolo[1,5-a]pyrimidin-3-yl)-1,2,4-oxadiazole-3-carboxamide] yielded an IC50 of 332 nM.
With `CCc1c(C)[nH]c2c(-n3ccnc3C)cnn2c1=O` [Example 77, 6-ethyl-5-methyl-3-(2-methyl-1H-imidazol-1-yl)pyrazolo[1,5-a]pyrimidin-7(4H)-one] the IC50 was 3380 nM.
Compound `CCc1c(C)[nH]c2c(-c3cnn(-c4nccc5ccccc45)c3)cnn2c1=O` [Example 66, 6-ethyl-3-(1-(isoquinolin-1-yl)-1H-pyrazol-4-yl)-5-methylpyrazolo[1,5-a]pyrimidin-7(4H)-one] has an IC50 of 861 nM.
`CCc1[nH]c2c(-n3cnc(-c4ccccn4)c3)cnn2c(=O)c1CC` [Example 51, 5,6-Diethyl-3-(4-(pyridin-2-yl)-1H-imidazol-1-yl)pyrazolo[1,5-a]pyrimidin-7(4H)-one] showed an IC50 of 70.8 nM.
`CCc1c(C)[nH]c2c(-n3cnc(C(N)=O)c3)cnn2c1=O` [Example 55, 1-(6-Ethyl-5-methyl-7-oxo-4,7-dihydropyrazolo[1,5-a]pyrimidin-3-yl)-1H-imidazole-4-carboxamide] gave an IC50 of 94.5 nM.
`CCc1c(C)[nH]c2c(-c3cc(-c4ccccn4)on3)cnn2c1=O` [Example 60, 6-Ethyl-5-methyl-3-(5-(pyridin-2-yl)isoxazol-3-yl)pyrazolo[1,5-a]pyrimidin-7(4H)-one] was tested, and the IC50 was 4000 nM.
`CCc1c(C)[nH]c2c(-n3cnc(C(=O)NC)c3)cnn2c1=O` [Example 74, 1-(6-ethyl-5-methyl-7-oxo-4,7-dihydropyrazolo[1,5-a]pyrimidin-3-yl)-N-methyl-1H-imidazole-4-carboxamide] was tested, and the IC50 was 996 nM.
With `CCc1c(C)[nH]c2c(-c3cnn(-c4nccc(C)n4)c3)cnn2c1=O` [Example 1] the IC50 was 26.3 nM.
`CCc1c(-c2ccccc2)[nH]c2c(-n3cnc(-c4ccccn4)c3)cnn2c1=O` [Example 47, 6-ethyl-5-phenyl-3-(4-(pyridin-2-yl)-1H-imidazol-1-yl)pyrazolo[1,5-a]pyrimidin-7(4H)-one] was tested, and the IC50 was 574 nM.
`CCc1c(C)[nH]c2c(-c3cnn(-c4cccnn4)c3)cnn2c1=O` [Example 69, 6-ethyl-5-methyl-3-(1-(pyridazin-3-yl)-1H-pyrazol-4-yl)pyrazolo[1,5-a]pyrimidin-7(4H)-one] was tested, and the IC50 was 233 nM.
Work on `CCc1c(C)[nH]c2c(-c3nnc(C(N)=O)o3)cnn2c1=O` [Example 56, 5-(6-Ethyl-5-methyl-7-oxo-4,7-dihydropyrazolo[1,5-a]pyrimidin-3-yl)-1,3,4-oxadiazole-2-carboxamide] yielded an IC50 of 276 nM.
In the case of `CCc1c(C)[nH]c2c(-n3cnc(I)c3)cnn2c1=O` [Example 80, 6-ethyl-3-(4-iodo-1H-imidazol-1-yl)-5-methylpyrazolo[1,5-a]pyrimidin-7(4H)-one], the IC50 is reported as 29400 nM.
`CCc1c(C)[nH]c2c(-n3cnc(-c4ccccn4)c3)cnn2c1=O` [Example 48, 6-Ethyl-5-methyl-3-(4-(pyridin-2-yl)-1H-imidazol-1-yl)pyrazolo[1,5-a]pyrimidin-7(4H)-one] showed an IC50 of 70.5 nM.
`CCc1c(C)[nH]c2c(-c3nnc(-c4ccccn4)o3)cnn2c1=O` [Example 57, 6-Ethyl-5-methyl-3-(5-(pyridin-2-yl)-1,3,4-oxadiazol-2-yl)pyrazolo[1,5-a]pyrimidin-7(4H)-one] gave an IC50 of 268 nM.
In the case of `CCc1c(C)[nH]c2c(-c3cnn(-c4cccc(OC)n4)c3)cnn2c1=O` [Example 70, 6-ethyl-3-(1-(6-methoxypyridin-2-yl)-1H-pyrazol-4-yl)-5-methylpyrazolo[1,5-a]pyrimidin-7(4H)-one], the IC50 is reported as 3730 nM.
`CCc1c(-c2ccccc2)[nH]c2c(-n3ccnc3)cnn2c1=O` [Example 79, 6-ethyl-3-(1H-imidazol-1-yl)-5-phenylpyrazolo[1,5-a]pyrimidin-7(4H)-one] was tested, and the IC50 was 43200 nM.
For `Cc1c(-c2ccccc2)[nH]c2c(-n3cnc(-c4ccccn4)c3)cnn2c1=O` [Example 52, 6-Methyl-5-phenyl-3-(4-(pyridin-2-yl)-1H-imidazol-1-yl)pyrazolo[1,5-a]pyrimidin-7(4H)-one], the IC50 was 470 nM.
In the case of `CCc1c(C)[nH]c2c(-c3cnn(-c4ncccc4C)c3)cnn2c1=O` [Example 67, 6-ethyl-5-methyl-3-(1-(3-methylpyridin-2-yl)-1H-pyrazol-4-yl)pyrazolo[1,5-a]pyrimidin-7(4H)-one], the IC50 is reported as 363 nM.
Work on `CCc1c(C)[nH]c2c(-n3cnc(-c4cccnc4)c3)cnn2c1=O` [Example 45, 6-ethyl-5-methyl-3-(4-(pyridin-3-yl)-1H-imidazol-1-yl)pyrazolo[1,5-a]pyrimidin-7(4H)-one] yielded an IC50 of 6320 nM.
In the case of `CCc1c(C)[nH]c2c(-c3cnn(-c4cc(C)ccn4)c3)cnn2c1=O` [Example 71, 6-ethyl-5-methyl-3-(1-(4-methylpyridin-2-yl)-1H-pyrazol-4-yl)pyrazolo[1,5-a]pyrimidin-7(4H)-one], the IC50 is reported as 26.3 nM.

These compounds were tested against T1, KDM5A (assay: KDM5A Demethylase Assay (TR-FRET Assay-C)). Details: full length recombinant Flag tagged KDM5A, 2 nM, HEPES pH 7.0, 1 μM α-ketoglutarate, read-out: C KDM5A HTRF (IC50).
Type: biochemical
Protocol: Full length recombinant Flag tagged KDM5A protein was purified from Sf9 insect cells. The demethylation reaction buffer contained 50 mM HEPES pH 7.0, 0.01% Triton X-100, 0.5 mM ascorbate, 2 mM DTT, 1 μM α-ketoglutarate, and 100 μM Fe2(NH4)2(SO4)2. In a 10 μL demethylation reaction system, 2 nM recombinant KDM5A was added to compounds in the above buffer (Vt 5 uL) in a 384 well Proxi Plate (Perkin Elmer Corp.) and then 0.1 μM biotinylated H3K9me1 peptide (1-21 aa, New England Peptide, Vt 5 uL) was added to initiate the reaction (Vt 10 uL). (All protein/reagent concentrations are final concentrations.) Reactions were incubated for 30 minutes at room temperature, and then quenched by addition of 5 uL stop buffer (3 mM EDTA, 50 mM TrisCl pH 7.5, 0.01% Triton X-100, 0.01 mg/mL BSA) followed by addition of 5 uL of detection reagents (buffer as above without EDTA but with addition of 200 nM SA-XL665 (CisBio) and 2 nM Eu(W1024)-anti-H3K4Me1-2 antibody (PerkinElmer)). After a 30 minute incubation assays were read on a Perkin-Elmer Envision equipped with appropriate filters. IC50s were calculated using standard dose-response equations and relative to a Max (no inhibition) and Min (no enzyme or quenched enzyme) controls.
In the case of `Cc1[nH]c2c(-n3cnc(-c4ccccn4)c3)cnn2c(=O)c1C(C)C` [Example 46, 6-isopropyl-5-methyl-3-(4-(pyridin-2-yl)-1H-imidazol-1-yl)pyrazolo[1,5-a]pyrimidin-7(4H)-one], the IC50 is reported as 23.4 nM.
For `Cc1ccc(-n2cc(-c3cnn4c(=O)c(C5CC5)c(C)[nH]c34)cn2)nc1` [Example 27, 6-cyclopropyl-5-methyl-3-(1-(5-methylpyridin-2-yl)-1H-pyrazol-4-yl)pyrazolo[1,5-a]pyrimidin-7(4H)-one], the IC50 was 33.2 nM.
Work on `O=c1c2c([nH]c3c(-c4cnn(-c5ccccn5)c4)cnn13)CCC2` [Example 42, 3-(1-(pyridin-2-yl)-1H-pyrazol-4-yl)-6,7-dihydro-4H-cyclopenta[d]pyrazolo[1,5-a]pyrimidin-8(5H)-one] yielded an IC50 of 32.2 nM.
